Laboratory results published in US10322088B2, “Sustained-release composition, method for fabricating, and use thereof” (NATIONAL TSING HUA UNIVERSITY, priority 2017, dated 2019).

How the values were obtained:
[1] = test system: human umbilical vein endothelial cells; experiment: Tubular structure formation test on Matrigel; type: cell-based; conditions: 25 mM D-glucose
Description: The human umbilical vein endothelial cells will migrate, arrange and form a tubular network structure without additional growth factors and the participation of other kinds of cells, thus the wound-healing efficiency is affected by the maintenance of the tubular structure of the cells as time goes on. Therefore, the ability to enhance cell migration and facilitate the angiogenesis of the sustained-release composition of the present disclosure is confirmed by the tubular structure formation test of the human umbilical vein endothelial cells. The specific experimental method is described below. First, 200 μL of the growth factor-reduced matrix Matrigel is added to each well of a 24-well plate respectively and then placed into the 37° C. incubator. After the growth factor-reduced matrix Matrigel is heated and become colloid, 2.5×10^4 of the human umbilical vein endothelial cells are seeded in each well of the aforementioned 24-well plate and then 200 μL of the medium (containing 25 mM D-glucose) is added to the wells respectively. […] Next, the tubular structure of each experimental group is observed via an inverted microscope at the time points of 6 hours, 12 hours, 24 hours and 48 hours, and the branching point number of each experimental group is calculated.

p38 protein = experiment: Signaling molecule activation test, p38 phosphorylation by ELISA; type: cell-based, human; conditions: HUVEC
Protocol: (§1) In the aforementioned description, the exogenous hydrogen sulfide can activate the signaling molecules related to the proliferation and the migration of the endothelial cells, such as ERK1/2 protein and p38 protein, so that the angiogenesis of the cells is enhanced. Thus, the ability to activate the signaling molecule of the sustained-release composition of the present disclosure is further estimated in this experiment. First, the human umbilical vein endothelial cells are seeded in a 6-well plate in a density of 10^5 cells per well. After incubating for 24 hours, the 1% FBS mediums containing the formula of the experimental group 1 or the experimental group 3 (all of them contain 25 mM D-glucose) respectively is added to each well of a 6-wells-plate. Finally, the cells are collected at specific time points and the phosphorylation level of p38 protein and ERK1/2 are quantified by the enzyme-linked immunosorbent assay (ELISA).

ERK1/2 protein = experiment: Signaling molecule activation test, ERK1/2 phosphorylation by ELISA; type: cell-based, human; conditions: HUVEC
Protocol: as §1

db/db mouse = experiment: In vivo wound healing test, full-thickness back skin wounds; conditions: after treating for 18 days, dressing replaced every 48 hours
Description: According to the aforementioned results, the sustained-release composition of the present disclosure does have the ability to enhance the cell migration, the cell proliferation and the angiogenesis, and the ability to facilitate the wound healing of the sustained-release composition of the present disclosure is further confirmed by the following in vivo wound healing test. The animal model established method and the animal experiment procedures of the in vivo wound healing test in this experiment are complied with the “Laboratory Animal Care and Use Guide” published by the Council of Agriculture, Taiwan. The diabetic animal model used in this experiment is an 8-week-old BKS.Cg-Lepr^db/Lepr^db/JNarl mouse (also known as db/db mouse).
In the in vivo wound healing test, four symmetrically distributed rounded full-thickness wounds are created on the back skin of each mouse by the tissue sampler after the mice are anesthetized, wherein the diameter of each wound is 0.5 centimeter and the volume of each wound is 50 μL. The four wounds are applied with different treatments respectively and the dressing is replaced every 48 hours. […] The area changes of each wound at different time points are further analyzed by the image analysis software.

S [experimental group 1, sodium hydrosulfide]
tubular structure ([1]; after incubating for 6 hours): can be observed
tubular structure disappeared rate ([1]; up to 48 hours): reduced
phosphorylation level of the p38 protein (p38 protein; after 24 hours and 48 hours): decreased
phosphorylation level of the p38 protein (p38 protein; first hour): significantly increased
phosphorylation level of the ERK1/2 protein (ERK1/2 protein; after 24 hours and 48 hours): decreased
phosphorylation level of the ERK1/2 protein (ERK1/2 protein; first hour): significantly increased
appearance of the wound (db/db mouse): unobvious
